This note sets out measurements from PMC5321741, “Arylmethylamino steroids as antiparasitic agents” (Nature Communications, 2017).

In data set [1] the test system is P. falciparum (strain 3D7). Briefly: 72 h 3H-hypoxanthine incorporation assay, asexual blood stages. The format is cell-based, Plasmodium falciparum. To be noted: 72 h 3H-hypoxanthine incorporation, asexual blood stages; read-out: Antiplasmodial activity IC50 Pf (3D7).
Another data set concerns HUVEC. Description: antiproliferative activity on HUVEC cells. The format is cell-based. The settings on record: 72 h. The protocol:
(§1) Compounds were tested for their antiproliferative activity on HUVEC and K-562 cells and for cytotoxicity on HeLa cells using standard protocols. K-562 (DSM ACC 10), HUVEC (ATCC CRL-1730), and HeLa (DSM ACC 57) cells were cultured as described previously. To assay the antiproliferative and cytotoxic effect, procedures were carried out as described before. In brief, for each experiment with K-562 and HeLa ∼10,000 cells were seeded per well of the 96-well microplates. For the cytotoxicity assay, the HeLa cells were preincubated for 48 h without the test substances. Cells were incubated for 72 h at 37 °C in a humidified atmosphere and 5% CO2. Suspension cultures of K-562 in microplates were analysed by an electronic cell analyzer system CASY 1 (SCHÄRFE, Reutlingen, Germany). The monolayer of the HUVEC and HeLa cells were fixed by glutaraldehyde (MERCK) and stained with a 0.05% solution of methylene blue (SERVA). After gently washing, the stain was eluted by 0.2 ml of 0.33 N HCl in the wells. The optical densities were measured at 660 nm in a microplate reader. The calculations of the different values of GI50 and CC50 were performed with the software Magellan (TECAN).

Another data set concerns HeLa. Briefly: cytotoxicity on HeLa cells. The settings on record: 72 h. The format is cell-based. The method, then:
as §1

In the next data set the test system is K-562. Briefly: antiproliferative activity on K-562 cells. The format is cell-based. The settings on record: 72 h. The protocol: as §1
Data set [2] concerns P. berghei asexual stages. Description: ex vivo drug assay (luciferase), asexual stages. The format is cell-based. The settings on record: Plasmodium berghei; 24 h incubation, n=3; read-out: IC50 against P. berghei ex vivo. The method, then: Plates frozen at −80 °C were thawed at 37 °C. The cells were lysed at room temperature in 10 μl 1x luciferin lysis buffer (Luciferase Cell Culture Lysis 5 × reagent, Promega), and 100 μl luciferase assay substrate was added to each well (Luciferase Assay System, Promega). Luciferase activity was measured on a luminescence plate reader (Mithras LB940 luminometer, Berthold Technologies). The mean of the luciferase activity was calculated for each technical triplicate and normalized as follows: (Lucx−LucRBC)/(Lucsolvent−LucRBC) with Lucx and Lucsolvent=mean luciferase activity for parasites incubated with compound x and with solvent (DMSO for 1o and PBS for MB), respectively, and LucRBC=mean luciferase activity of non-infected red blood cells (background). IC50 values were calculated using Prism (GraphPad, log(inhibitor) versus normalized response—variable slope) in three independent experiments for the P. falciparum gametocyte assay and five for the P. berghei ex vivo drug assay.
The animal experiments described in this part were performed at the Institut de Biologie Moléculaire et Cellulaire (Strasbourg, France), using facilities and protocols adhering to national regulations of laboratory animal welfare in France. […] Parasitaemia was monitored via FACS analysis (FACSCalibur, BD Bioscience). […]

Data set [3] concerns Candida albicans JMRC:ST:35864. Briefly: spore inhibition test. The format is cell-based. To be noted: 48 h; start concentration 1 mg/ml (1o, 2o), 100 µg/ml (Amphotericin B). The method, then: (§2) The following test organisms were used for their susceptibility to compounds 1o and 2o: Alternaria alternata JMRC:SF:09317, Arthroderma benhamiae JMRC:ST:35888, Aspergillus fumigatus JMRC:Afum:00073=ATCC 46645, Aspergillus terreus JMRC:SF:06307, Candida albicans JMRC:ST:35864, Lichtheimia corymbifera JMRC:SF:09682, Penicillium chrysogenum JMRC:SF:10137, Rhizopus arrhizus (syn. R. oryzae) JMRC:SF:05857=ATCC 56536, CBS 112.07.
(§3) Fungi were grown on 3% malt extract solidified medium for 1 to 2 weeks at room temperature. Then the plates were washed with 7 ml sterile distilled water, and the spore suspension was filtered through 4 layers of sterile Miracloth (Kalbiochem, USA) to remove the hyphae. The concentration of the spore suspension was set to 2 × 10^4 conidia ml^−1 for the in vitro assays.
(§4) The spore inhibition assay took place in 96-well microplates (flat base). 50 μl of the prepared spore suspension was seeded and then mixed with 50 μl of the respective inhibitor substance. Tests were started with end concentrations of 1 mg ml^−1 and were then reduced in a minimum of 10 halving steps. Thus a 2 mg ml^−1 stock solution diluted in half ten times with solvent (distilled water, 2% DMSO in distilled water, or 2% DMF in distilled water) and each 50 μl was transferred to 50 μl spore suspension. For each test substance, 12 holes on the microtiter plate were filled. After 24 h incubation (25 °C), the germination of the spores was macroscopically and microscopically examined directly in the microtiter plate via measurement of the optical density and light microscopy using an inverse stereomicroscope with subsequent photodocumentation, respectively. If necessary, the plates were further incubated for another 24 or 48 h, depending on the extent of fungal germination.

Data set [4] concerns Aspergillus terreus JMRC:SF:06307. Description: spore inhibition test. The format is cell-based. To be noted: 48 h; start concentration 1 mg/ml (1o, 2o), 100 µg/ml (Amphotericin B). The protocol:
as §2, §3, §4

Data set [5] concerns Aspergillus fumigatus JMRC:Afum:00073. Description: spore inhibition test. The format is cell-based. To be noted: 48 h; start concentration 1 mg/ml (1o, 2o), 100 µg/ml (Amphotericin B). The protocol: as §2, §3, §4
The test system of data set [6] is Rhizopus arrhizus (syn. R. oryzae) JMRC:SF:05857. Briefly: spore inhibition test. The format is cell-based. To be noted: 48 h; start concentration 1 mg/ml (1o, 2o), 100 µg/ml (Amphotericin B). The method, then: as §2, §3, §4
The subject of data set [7] is Alternaria alternata JMRC:SF:09317. Briefly: spore inhibition test. The format is cell-based. To be noted: 48 h; start concentration 1 mg/ml (1o, 2o), 100 µg/ml (Amphotericin B). The method, then:
as §2, §3, §4

Data set [8] has as its system Arthroderma benhamiae JMRC:ST:35888. Briefly: spore inhibition test. The format is cell-based. The settings on record: 72 h; start concentration 1 mg/ml (1o, 2o), 100 µg/ml (Amphotericin B). The method, then: as §2, §3, §4
In data set [9] the test system is Penicillium chrysogenum JMRC:SF:10137. Description: spore inhibition test. The format is cell-based. To be noted: 48 h; start concentration 1 mg/ml (1o, 2o), 100 µg/ml (Amphotericin B). The protocol:
as §2, §3, §4

Data set [10] concerns Lichtheimia corymbifera JMRC:SF:09682. Briefly: spore inhibition test. The format is cell-based. The settings on record: 48 h; start concentration 1 mg/ml (1o, 2o), 100 µg/ml (Amphotericin B). The method, then: as §2, §3, §4
The test system of data set [11] is Sporobolomyces salmonicolor JMRC:ST:35974. Description: agar diffusion inhibition zone test. The settings on record: 1o, 2o 1,000 µg/ml in DMSO; amphotericin B 10 µg/ml; solvent DMSO 20p. The format is cell-based. The protocol: (§5) The following organisms were tested at the Hans Knöll Institute in Jena, for their susceptibility to the compounds 1o and 2o: Bacillus subtilis JMRC:STI:10880, Staphylococcus aureus JMRC:ST:10760, Escherichia coli JMRC:ST:33699, Pseudomonas aeruginosa JMRC:ST:33772, Pseudomonas aeruginosa JMRC:ST:337721, Staphylococcus aureus JMRC:ST:33793 (multi-resistant), Enterococcus faecalis JMRC:ST:33700 (Vancomycin-resistant), Mycobacterium vaccae JMRC:STI:10670, Sporobolomyces salmonicolor (Basidiomycetes yeast) JMRC:ST:35974, Candida albicans (Ascomycetes yeast) JMRC:STI:25000, Penicillium notatum JMRC:STI:50164.
(§6) The bacteria were propagated in Mueller Hinton Broth (Oxoid)[49]. Yeast was propagated in YPD (yeast extract peptone dextrose): 1% yeast extract, 10 g; 2% peptone, 20 g; 2% agar, 20 g; 2% dextrose (glucose), 20 g; Sigma-Y1375. All bacteria and yeast suspensions were freshly made. The cultures were incubated at 37 °C for 16 h. Afterwards, the bacteria concentration from each culture was determined, and 34 ml of nutrient agar was loaded with 10^7 cells. These cultures were stored at 6-8 °C and could be used for seven days for the preparation of test plates. 34 ml of nutrient agar was liquefied and inoculated with the calculated amount of inoculum bacteria suspension at 48–50 °C, a temperature suitable for vegetative forms of bacteria. The inoculated nutrient media (34 ml each) were immediately poured into the prepared test plates (3 mm layer). With a punching device, 12 holes per test plate were punched out. For inhibiting bacterial growth, ciprofloxacin was used as a reference substance. The test substances were dissolved in distilled water, and 5 μg ml^−1 and 50 μl was added to each bacterial culture. For inhibition of fungal growth, amphotericin B served as the reference substance. The test substances were diluted to 10 μg ml^−1 in DMSO/methanol; 50 μl was added to each culture.
(§7) Configuring the test plate; volumes/punched hole: 50 μl; test solutions/test plate: 1 × 50 μl reference substance. Test plates were cultivated for 18 h at 37 °C. Analysis: Reading the inhibition zones (IZ): As IZ, the zone in which no growth can be determined with the naked eye is measured; the tiniest colonies on the edge of the inhibition zone were therefore not taken into consideration. The diameter (φ) of the IZ is measured in mm. The analysis of IZ φ is carried out internationally with the help of statistic procedures, especially regression analysis. With each test approach, the reference substance was brought along as a control; if there were deviations from allowed IZ φ, the test was repeated.
(§8) The inhibition of bacterial growth was determined using bacterial cultures grown in Müller-Hinton Bouillon, which was configured at barely visible opacity with the McFarland Standard Nr. 0.5, which indicates a bacterial density of 10^8 ml^−1. This bacterial suspension was diluted with Müller-Hinton Bouillon using 2-fold dilution series in the agar diffusion test.
(§9) Analysis: The growth in the inhibition zones around the holes containing active substances is thereby compared with the growth in the growth control (no active substance). Bacterial growth was determined according to four measurements: p=presence of colonies in the inhibition zone, P=presence of many colonies in the inhibition zone, A=indication of inhibition, F=facilitation.

Data set [12] has as its system Candida albicans JMRC:STI:25000. Description: agar diffusion inhibition zone test. The format is cell-based. The settings on record: 1o, 2o 1,000 µg/ml in DMSO, amphotericin B 10 µg/ml, solvent DMSO 0, read-out: inhibition zone diameter, Candida albicans (H8). The protocol: as §5, §6, §7, §8, §9
A general note: A growth-free zone around the sample is the usual read-out of agar diffusion tests.

Data set [13] concerns Penicillium notatum JMRC:STI:50164. Description: agar diffusion inhibition zone test. The format is cell-based. The settings on record: 1o, 2o 1,000 µg/ml in DMSO; amphotericin B 10 µg/ml; solvent DMSO 13p. The protocol:
as §5, §6, §7, §8, §9

What is called IC50 is the point on the concentration scale where inhibition reaches its midpoint. Broadly, the GI50 is the concentration that inhibits growth by half. The low end stands for greater sensitivity of the cells, the high end for lower sensitivity of the cells. What is called CC50 is the concentration at which the toxic effect on the cells reaches its halfway point. A low value points to harm at low concentration.

In the case of `CC(C)CCCC(C)C1CCC2C3CCC4CC(O)C(NCc5ccccc5O)CC4(C)C3CCC12C` (stereo not shown) [14c], the IC50 in [1] is 0.208 µM. For the same molecule, the values for the GI50 in the data set with HUVEC and in the data set with K-562 were 6.7 µM and 8.2 µM, respectively. Also, in the data set on HeLa, the CC50 was determined as 21.8 µM.

Take `CN(C)c1ccc2nc3ccc(=[N+](C)C)cc-3sc2c1` [methylene blue, reference compound]: the IC50 in [2] is 0.0026 ± 0.0012 µM.

Take `CC(C)CCCC(C)C1CCC2C3CCC4CC(O)C(NCc5ccccc5O)CC4(C)C3CCC12C` (stereo not shown) [13c]: the IC50 in data set [1] is 0.465 µM. Besides, the GI50 with HUVEC is 23.7 µM; in the data set on K-562, 17.7 µM. The molecule further returned a 50% cytotoxic concentration (CC50) with HeLa of 85.3 µM.

`C[C@@H]1[C@H](O)[C@@H](C)/C=C/C=C/C=C/C=C/C=C/C=C/C=C/[C@H](O[C@@H]2O[C@H](C)[C@@H](O)[C@H](N)[C@@H]2O)C[C@@H]2O[C@](O)(C[C@@H](O)C[C@@H](O)[C@H](O)CC[C@@H](O)C[C@@H](O)CC(=O)O[C@H]1C)C[C@H](O)[C@H]2C(=O)O` [Amphotericin B, amphotericin B, reference compound]: in data set [3], the “antifungal profile, 1st value = microscopic visualization-based observation, Candida albicans” value came out at 0.4 and the “antifungal profile, 2nd value = optical density-based observation, Candida albicans” value is 0.2. In data set [4], the “antifungal profile, 1st value = microscopic visualization-based observation, Aspergillus terreus” value is 50 and the “antifungal profile, 2nd value = optical density-based observation, Aspergillus terreus” value is on record as 0.2. In addition, in data set [5], the “antifungal profile, 1st value = microscopic visualization-based observation, Aspergillus fumigatus” value worked out at 3.12 and the “antifungal profile, 2nd value = optical density-based observation, Aspergillus fumigatus” value is given as 0.4. Further, in data set [6], the “antifungal profile, 1st value = microscopic visualization-based observation, Rhizopus arrhizus” value was determined as 25 and the “antifungal profile, 2nd value = optical density-based observation, Rhizopus arrhizus” value is reported as 1.56. In data set [7], the “antifungal profile, 1st value = microscopic visualization-based observation, Alternaria alternata” value was found to be 0.78 and the “antifungal profile, 2nd value = optical density-based observation, Alternaria alternata” value stood at 0.1. Besides, in data set [8], the “antifungal profile, 1st value = microscopic visualization-based observation, Arthroderma benhamiae” value is 3.12 and the “antifungal profile, 2nd value = optical density-based observation, Arthroderma benhamiae” value stood at 0.2. In [9], the “antifungal profile, 1st value = microscopic visualization-based observation, Penicillium chrysogenum” value is listed as 100 and the “antifungal profile, 2nd value = optical density-based observation, Penicillium chrysogenum” value stood at 1.56. For the same molecule, in data set [10], the “antifungal profile, 1st value = microscopic visualization-based observation, Lichtheimia corymbifera” value is reported as less than 0.05 and the “antifungal profile, 2nd value = optical density-based observation, Lichtheimia corymbifera” value is recorded as less than 0.05. Besides, in data set [11], the “inhibition zone diameter, Sporobolo. salmonicolor (H4)” value turned out to be 18p. In addition, the zone of inhibition at 10 µg/mL in [12] turned out to be 21 mm. Moreover, the “inhibition zone diameter, Penicillium notatum (P1)” value in data set [13] amounted to 19p.
